A short description of this data set: Accelerated preservation test of dustable powder (Cyazofamid content by HPLC). The data set is classed as physicochemical. How it is done: The dustable powder obtained by Example 1 or Comparative Example was subjected to an accelerated preservation at 54° C. for 14 days, and then the Cyazofamid content in the dustable powder was measured by an HPLC (high performance liquid chromatography) and degradation ratio (%) of Cyazofamid was calculated by the following formula. In this connection, the Cyazofamid content in the dustable powder preserved at 4° C. was measured at the time of measuring the Cyazofamid content in the dustable powder after accelerated preservation, and the value was used as the initial stage content. Degradation ratio (%)=(initial stage content−content after accelerated preservation)/initial stage content×100

In the case of Epoxidized Soybean Oil, the “Degradation Ratio (%) of Cyazofamid” value was determined as 5%.

Polyoxyethylene Castor Oil: the “Degradation Ratio (%) of Cyazofamid” value amounted to 7%.

The values above are taken from US20110144175A1, “METHOD FOR CONTROLLING DEGRADATION OF AGRICULTURAL CHEMICAL ACTIVE INGREDIENT” (priority 2008, published 2011).
